According to patent publication US8722729B2, “Unsaturated fatty acid monoesters and diesters on ascorbic acid and cosmetic uses thereof” (Pierre Fabre Dermo-Cosmetique, priority 2009, dated 2014):
Entries after “also recorded” stand apart in the source; their conditions may differ.

Columns and labels:
[1] = system: B16-F10 cells; assay: Assay of melanin in B16-F10 cells (colorimetric, α-MSH stimulated); assay type: cell-based, murine; settings: for inhibition at 10 µM / inhibition at 20 µM / inhibition at 50 µM / inhibition at 100 µM: B16-F10, 72 hours, read-out: Percentage inhibition of intracellular melanin
Protocol: Similarly, to evidence the depigmenting activity of the compounds of general formula (I) according to the invention, the effect of these compounds was measured on the synthesis of melanin by colorimetric assay on a cell line of murine melanomas: line B16-F10.
This is a test to measure the synthesis of melanin by colorimetric assay on a cell line of murine melanomas: line B16-F10. This test allows the evaluation of the depigmenting property of active ingredients.
The B16-F10 cells were seeded onto 96-well plates in DMEM medium supplemented with FCS (fetal calf serum) and incubated 24 hours at 37° C., 5% CO2. The cells were then stimulated with α-MSH (to stimulate the synthesis of melanin, the stimulation observed was about 150%) and treated 72 hours with the active ingredients to be tested. Each concentration of active ingredient was tested at least in triplicate. Total melanin followed by intracellular melanin dissolved in lysis buffer were then assayed by absorbency reading at 405 nm. The total proteins were determined in the lysate and the results are expressed in mg melanin/mg proteins. The percentage activity was calculated as follows: […]
A negative value indicates an inhibition, whereas a positive value indicates induced synthesis of melanin.

[2] = target: T1, hyaluronidase of bovine origin (BTH, Bovine Testis hyaluronidase) (Bos taurus, UniProt Q2YDK3); assay: Assay of hyaluronidase activity (residual HA, HA-ELISA); assay type: biochemical
T1 sequence (Q2YDK3 1-553): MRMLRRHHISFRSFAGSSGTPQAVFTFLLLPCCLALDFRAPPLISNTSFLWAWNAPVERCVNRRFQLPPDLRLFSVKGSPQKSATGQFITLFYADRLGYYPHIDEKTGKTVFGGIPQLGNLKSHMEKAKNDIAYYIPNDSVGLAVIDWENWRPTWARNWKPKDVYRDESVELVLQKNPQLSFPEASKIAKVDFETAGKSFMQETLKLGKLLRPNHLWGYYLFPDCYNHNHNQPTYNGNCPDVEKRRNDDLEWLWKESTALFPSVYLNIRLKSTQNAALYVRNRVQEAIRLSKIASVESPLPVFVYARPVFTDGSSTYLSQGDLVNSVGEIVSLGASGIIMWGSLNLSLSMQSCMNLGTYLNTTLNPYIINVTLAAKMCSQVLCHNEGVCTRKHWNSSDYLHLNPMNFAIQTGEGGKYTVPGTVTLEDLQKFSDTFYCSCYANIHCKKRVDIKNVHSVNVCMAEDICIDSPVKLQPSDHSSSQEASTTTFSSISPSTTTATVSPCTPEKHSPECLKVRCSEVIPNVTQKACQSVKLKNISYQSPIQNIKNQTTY
Protocol: Hyaluronidase activity is measured by the assay of residual hyaluronic acid (HA). The substrate is fixed to a carrier then placed in the presence of an enzyme and a quantity of compound to be tested. The residual HA i.e. the non-hydrolyzed HA is assayed using a HA-Elisa detection system: Hyaluronan enzyme-linked immunosorbent assay (Echelon Biosciences®).
0.5 units of hyaluronidase of bovine origin (BTH, Bovine Testis hyaluronidase) were pre-incubated at 37° C. with the compound to be tested. This mixture was deposited on the HA fixed to the surface of a microplate well. The enzymatic reaction took place at pH 7.2n at 37° C. Washing was followed by a recognition step of residual HA by hyaluronectin (NH). The quantity of bonded NH was measured by ELISA using an anti-NH antibody conjugated with alkaline phosphatase. The p-nitrophenyl phosphate disodium salt (pnNpp) substrate of the phosphatase allows spectrometric detection at 405 nm. (Delpech B et al., Analytical Biochemistry 149, 555(565 (1985); Robert Stern et al. Analytical Biochemistry 251, 263-269 (1997)). OD intensity was correlated with the quantity of residual HA. The quantity of residual HA is directly linked to enzymatic activity. In the presence of an inhibitor, the larger the quantity of residual HA the more the sample is inhibiting. A percentage inhibition of hyaluronidase will be expressed.
Therefore the net enzymatic activities were calculated which represent the difference in mean gross activity without enzyme and the gross activity of the enzyme with or without the compound to be tested.
The percentage enzymatic inhibition related to the compound to be tested was calculated as follows: % inhibition=(Maximum net enzymatic activity)−Net enzymatic activity in the presence of the compound to be tested)/Maximum net enzymatic activity.
where the maximum net enzymatic activity represents the mean net enzymatic activity of 0.5 U.

[3] = 0.5 U BTH, read-out: Enzymatic inhibition (mean as a percentage)

inhibition at 100 µM [2, 3]	inhibition at 500 µM [2, 3]	IC50 ([1]; Mus musculus, B16-F10, α-MSH stimulated, read-out: IC50 intracellular melanin)	inhibition at 5 µM ([2]; 5 μM, 0.5 U BTH, read-out: Enzymatic inhibition (mean as a percentage))	inhibition at 10 µM ([2]; 10 μM, 0.5 U BTH, read-out: Enzymatic inhibition (mean as a percentage))	inhibition at 20 µM ([2]; 20 μM, 0.5 U BTH, read-out: Enzymatic inhibition (mean as a percentage))	inhibition at 25 µM ([2]; 25 μM, 0.5 U BTH, read-out: Enzymatic inhibition (mean as a percentage))	inhibition at 30 µM ([2]; 30 μM, 0.5 U BTH, read-out: Enzymatic inhibition (mean as a percentage))	inhibition at 40 µM ([2]; 40 μM, 0.5 U BTH, read-out: Enzymatic inhibition (mean as a percentage))	inhibition at 50 µM ([2]; 50 μM, 0.5 U BTH, read-out: Enzymatic inhibition (mean as a percentage))	inhibition at 250 µM ([2]; 250 μM, 0.5 U BTH, read-out: Enzymatic inhibition (mean as a percentage))	IC50 ([2]; in the region of)	SMILES	inhibition at 10 µM ([1]; Mus musculus)	inhibition at 20 µM ([1]; Mus musculus)	inhibition at 50 µM ([1]; Mus musculus)	inhibition at 100 µM ([1]; Mus musculus)	Effect on hyaluronidase [2]	Inhibition of the synthesis of intracellular melanin compared with vitamin C [1]
1%	4%											O=C1O[C@H]([C@@H](O)CO)C(O)=C1O [Ascorbic acid, ascorbic acid]	-5%	7%	5%	22%	no effect	
113%	122%	67 µM	14%	21%	44%	46%	66%	86%	76%	119%	25 to 30 µM	CCCCC/C=C\C/C=C\CCCCCCCC(=O)OC1=C(OC(=O)CCCCCCC/C=C\C/C=C\CCCCC)C(C2COC(C)(C)O2)OC1=O (stereo not shown) [Molecule 1, diactodeca-9,12-dienoate of (9Z,9′Z,12Z,12′Z)-2-(2,2-dimethyl-1,3-dioxolan-4-yl)-5-oxo-2,5-dihydrofuran-3,4-diyl]	9%	21%	41%	71%	strongly inhibit hyaluronidase; also recorded: equivalent to or more active than ascorbyl palmitate	greater than that of vitamin C
